Like-named read-outs stand apart in the source and are kept apart here. Values belong to the compound of their own block, whether it stands above or below them.
Assays:
[1] = tested on: right ventricle of guinea pigs; assay: heart function dP/dtmax, right ventricle of anesthetized guinea pigs; assay type: in vivo, guinea pig
Method: The effect of the substances on the contractility of the heart of guinea pigs is tested on animals (.male., 400 to 1000 g) under urethane anesthesia. The change in pressure in the right ventricle of the heart is measured with a tip catheter introduced through the right jugular vein and the maximum rate of pressure rise (dP/dtmax) is determined from this. The heart rate is derived from the pressure waves. […] The test substances were administered intravenously. 5-7 animals were used for each measurement, and the arithmetic mean was calculated from the results.

[2] = tested on: guinea pig hearts isolated and perfused by the Langendorff method; assay: left-ventricular pressure and heart rate in isolated perfused Langendorff hearts; settings: for Emax: Cavia porcellus; for EC20 left-ventricular pressure: dose which leads to a 20% increase in left ventricular pressure
Source text: After the animals have been sacrificed by a blow to the neck and exsanguination through the carotid arteries, the thoracic cavity is opened, and the aorta is exposed and looped up with a thread. A cannula, which is attached by tubing to the apparatus from which the nutrient solution slowly drops, is introduced in the direction of the heart and the heart is, quickly after removal from the thorax, connected to the perfusion apparatus. A balloon probe, connected to a Statham pressure sensor, is advanced through a cut through the left atrium into the left ventricle, and is provided with an initial pressure of 40 mm Hg. […] The nutrient solution flowing freely from the coronary sinus into the right atrium is measured with a flow […]) and, together with the change in the left-ventricular pressure and the heart rate determined from this, is recorded on a Watanabe recorder. The substances are administered in a volume of 0.1 ml of nutrient solution, in the dosage indicated in Tab.

[3] = tested on: electrically stimulated left atrium of rats; assay: positive inotropic action on electrically stimulated left atrium in vitro; design: species or system rat; settings: for [EC40 pot.] theophylline / [EC40 pot.] substance: Column E, left atrium; for EC40: Rattus norvegicus, Column B, negative logarithm of EC40pot in mol/l, 40% increase in contraction force, read-out: -lg[EC40 pot.] left atrium (converted)
Method: The positive inotropic action was tested in vitro on the electrically stimulated left atrium of rats (l.a.).
The positive inotropic action of the compounds was tested in vitro on the electrically stimulated left atrium of rats.
Isometric contractions (HSE force sensor K-30; Watanabe recorder, Linear Corder Mark 5) of isolated, left atria from rats (.male., 250-300 g) in an organ bath (10 ml, Tyrode nutrient solution, 31° C., gassing with carbogen, initial tension of the organs 0.25 g) under electrical stimulation (HSE stimulator, 7 V, 3 ms, 2 Hz) were recorded. […] The particular increase in the contraction force is expressed in % of the starting value before administration of the substance. The concentration of the test substance which potentiates the contraction force of the atrium by 40% compared with the starting value [EC40pot. mol/l], expressed by the negative logarithm of the [EC40pot mol/l]: -lg[EC40pot ] serves as a measure of the cardiotonic activity.

[4] = tested on: chain of tracheal rings of guinea pigs; assay: relaxing action on chain of tracheal rings in vitro (bronchospasmolytic action); design: species or system guinea pig; settings: for EC50: Cavia porcellus, Column A, negative logarithm of EC50 in mol/l, 50% of maximum relaxation by (-)isoprenaline, read-out: -lg[EC50] trachea (converted); for [EC40 pot.] left atrium / [EC50] trachea: Column C, measure of organ-selective activity; for [EC50] theophylline / [EC50] substance: Column D, trachea
Method: The relaxing action of the 6-aryl-3[2H]pyridazinones I has been tested in vitro on a chain of tracheal rings (Tr.) of guinea pigs. […] The quotient of [EC40pot. ]left atrium and [ED50 ]trachea serves as a measure of the organ-selective activity.
The bronchospasmolytic action of the compounds on the chain of tracheal rings of the guinea pig was tested in vitro:
Four parallel chains of tracheal rings, each consisting of 6 individual rings, of guinea pigs(.male. and .female., 430-600 g) in an organ bath [5 ml, Krebs-Henseleit solution with added phentolamine (10^-5 mol/l), 37° C., initial tension of the organs 2 g, gassing with carbogen] develop a stable, spontaneous tonic contraction after about 20 to 30 minutes. […] Over a period of 20 to 30 minutes, a complete dose/action curve of the test substance is thus obtained. The particular relaxation is expressed as a percentage fraction of the maximum relaxation which can be achieved by administration of (-)isoprenaline (10^-6 mol/1). The concentration of the test substance which causes 50% of the maximum relaxation which can be achieved, expressed by the negative logarithm of the EC50 mol/l: -lg[EC50 ]is a measure of the bronchodilator activity.

left ventricles of cats = assay: heart function dP/dtmax, left ventricle of anesthetized cats; assay type: in vivo, cat; settings: for increase in the heart rate or end-diastolic ventricular pressure / positive inotropic effects (increase in dP/dtmax) compared with comparison compounds: result in words
Method: The effect of the substances on the contractility of the heart in cats was tested on animals (.male., .female., 3.2 to 5.2 kg) under anesthesia with chloralose/urethane. The change in pressure in the left ventricle of the heart was measured with a tip catheter introduced through the right carotid artery, the R peak in the ECG (bipolar chest lead) initiating a signal to record the end-diastolic pressure; in addition, the maximum rate of pressure rise (dP/dtmax) was determined from the change in pressure. The heart rate was derived from the pressure waves. The test substances were administered intravenously. 2-6 animals were used per measurement, and the arithmetic mean was calculated from the results.

[5] = tested on: acetylcholine-induced bronchospasm; assay: protective effect against acetylcholine-induced bronchospasm in conscious guinea pigs; assay type: in vivo, guinea pig
Method: The figure in parentheses indicates the number out of 10 animals in which the latency period more than tripled.
The latency period is to be understood to be the time from the start of acetylcholine-atomization until clear signs of asthma appeared.
The time from the start of atomization to the onset of clear respiratory exertion (in certain circumstances, hypoxic convulsion in the lateral position) is measured, and is denoted the latency period.
The test substance is administered orally by gavage (standard dose 100 μmol/kg, volume 1 ml of 4% strength methocel suspension in 0.9% strength sodium chloride solution/kg). […] Prolongation of the latency period to at least twice its length is regarded as a protective effect.

[6] = 0.3 μmol/kg i.v., 0-10 min (Maximum)
[7] = 1 μmol/kg i.v., 0-10 min (Maximum)
[8] = 3 μmol/kg i.v., 0-10 min (Maximum)
[9] = after 1000 nMol, read-out: Emax left-ventricular pressure
[10] = at Emax, 1000 nMol, read-out: Percentage increase in heart rate at Emax

EC50 [4]: 1.32 µM
[EC40 pot.] left atrium / [EC50] trachea [4]: 2.9
[EC50] theophylline / [EC50] substance [4]: 102
Structure (SMILES): CCOc1ccc(-c2ccc(=O)[nH]n2)cc1OC [Serial No. 4, 6-(4-ethoxy-3-methoxyphenyl)-3[2H]pyridazinone]
Percentage change in dP/dtmax [1, 6]: 39%
Percentage change in dP/dtmax ([1]; 0.3 μmol/kg i.v., 10 min): 12%
Percentage change in dP/dtmax ([1]; 0.3 μmol/kg i.v., 30 min): 23%
Percentage change in dP/dtmax [1, 7]: 140%
Percentage change in dP/dtmax ([1]; 1 μmol/kg i.v., 10 min): 26%
Percentage change in dP/dtmax ([1]; 1 μmol/kg i.v., 30 min): 56%
Percentage change in dP/dtmax [1, 8]: 95%
Percentage change in dP/dtmax ([1]; 3 μmol/kg i.v., 10 min): 66%
Percentage change in dP/dtmax ([1]; 3 μmol/kg i.v., 30 min): 59%
Emax ([2]; after 300 nMol, read-out: Emax left-ventricular pressure): 58%
Emax ([2]; at Emax, 300 nMol, read-out: Percentage increase in heart rate at Emax): 27%
Percentage increase in heart rate at EC20 [2]: 6%
EC20 left-ventricular pressure [2]: 22 nmol
[EC40 pot.] theophylline / [EC40 pot.] substance [3]: 109
EC40 [3]: 3.8 µM

EC50 [4]: 7.24 µM
[EC40 pot.] left atrium / [EC50] trachea [4]: 0.4
[EC50] theophylline / [EC50] substance [4]: 18.6
Structure (SMILES): COc1ccc(-c2ccc(=S)[nH]n2)cc1OC(C)C [compound 17]
[EC40 pot.] theophylline / [EC40 pot.] substance [3]: 151
EC40 [3]: 2.75 µM

EC50 [4]: 1.41 µM
[EC40 pot.] left atrium / [EC50] trachea [4]: 1.5
[EC50] theophylline / [EC50] substance [4]: 95.5
Structure (SMILES): CCOc1cc(-c2ccc(=S)[nH]n2)ccc1OC [compound 14]
[EC40 pot.] theophylline / [EC40 pot.] substance [3]: 200
EC40 [3]: 2.09 µM

EC50 [4]: 1.51 µM
[EC40 pot.] left atrium / [EC50] trachea [4]: 4.4
[EC50] theophylline / [EC50] substance [4]: 85.2
Structure (SMILES): C=CCOc1ccc(-c2ccc(=O)[nH]n2)cc1OC [Serial No. 5, 6-(4-allyloxy-3-methoxyphenyl)-3[2H]pyridazinone]
Percentage change in dP/dtmax (left ventricles of cats; 0.3 μmol/kg i.v., 3 min): 27%
Percentage change in dP/dtmax (left ventricles of cats; 0.3 μmol/kg i.v., 10 min): 12%
Percentage change in dP/dtmax (left ventricles of cats; 0.3 μmol/kg i.v., 30 min): 11%
Percentage change in dP/dtmax (left ventricles of cats; 0.3 μmol/kg i.v., 60 min): 13%
Percentage change in dP/dtmax (left ventricles of cats; 1 μmol/kg i.v., 3 min): 64%
Percentage change in dP/dtmax (left ventricles of cats; 1 μmol/kg i.v., 10 min): 25%
Percentage change in dP/dtmax (left ventricles of cats; 1 μmol/kg i.v., 30 min): 15%
Percentage change in dP/dtmax (left ventricles of cats; 1 μmol/kg i.v., 60 min): 20%
increase in the heart rate or end-diastolic ventricular pressure (left ventricles of cats): without leading to any considerable increase in the heart rate or end-diastolic ventricular pressure
positive inotropic effects (increase in dP/dtmax) compared with comparison compounds (left ventricles of cats): stronger positive inotropic effects
Emax [2, 9]: 185%
Emax [2, 10]: 9%
Percentage increase in heart rate at EC20 [2]: 3%
EC20 left-ventricular pressure [2]: 14 nmol
[EC40 pot.] theophylline / [EC40 pot.] substance [3]: 63.1
EC40 [3]: 6.61 µM

Structure (SMILES): CCC(C)Oc1ccc(-c2ccc(=O)[nH]n2)cc1OC (stereo not drawn) [Serial No. 7, 6-(4-sec.-butoxy-3-methoxyphenyl)-3[2H]pyridazinone]
Percentage change in dP/dtmax (left ventricles of cats; 0.3 μmol/kg i.v., 3 min): 36%
Percentage change in dP/dtmax (left ventricles of cats; 0.3 μmol/kg i.v., 10 min): 4%
Percentage change in dP/dtmax (left ventricles of cats; 0.3 μmol/kg i.v., 30 min): 1%
Percentage change in dP/dtmax (left ventricles of cats; 0.3 μmol/kg i.v., 60 min): 2%
Percentage change in dP/dtmax (left ventricles of cats; 1 μmol/kg i.v., 3 min): 90%
Percentage change in dP/dtmax (left ventricles of cats; 1 μmol/kg i.v., 10 min): 25%
Percentage change in dP/dtmax (left ventricles of cats; 1 μmol/kg i.v., 30 min): 11%
Percentage change in dP/dtmax (left ventricles of cats; 1 μmol/kg i.v., 60 min): 11%
increase in the heart rate or end-diastolic ventricular pressure (left ventricles of cats): without leading to any considerable increase in the heart rate or end-diastolic ventricular pressure
positive inotropic effects (increase in dP/dtmax) compared with comparison compounds (left ventricles of cats): stronger positive inotropic effects
Emax [2, 9]: 86%
Emax [2, 10]: 23%
Percentage increase in heart rate at EC20 [2]: 3%
EC20 left-ventricular pressure [2]: 13 nmol
[EC40 pot.] theophylline / [EC40 pot.] substance [3]: 120
EC40 [3]: 3.47 µM
EC50 [4]: 1.32 µM
[EC40 pot.] left atrium / [EC50] trachea [4]: 2.6
[EC50] theophylline / [EC50] substance [4]: 102

Structure (SMILES): Nc1cc(-c2ccncc2)c[nH]c1=O [Amrinone, amrinone, reference compound]
Percentage change in dP/dtmax [1, 6]: 33%
Percentage change in dP/dtmax ([1]; 0.3 μmol/kg i.v., 10 min): 8%
Percentage change in dP/dtmax ([1]; 0.3 μmol/kg i.v., 30 min): 13%
Percentage change in dP/dtmax [1, 7]: 40%
Percentage change in dP/dtmax ([1]; 1 μmol/kg i.v., 10 min): 21%
Percentage change in dP/dtmax ([1]; 1 μmol/kg i.v., 30 min): 15%
Percentage change in dP/dtmax [1, 8]: 66%
Percentage change in dP/dtmax ([1]; 3 μmol/kg i.v., 10 min): 13%
Percentage change in dP/dtmax ([1]; 3 μmol/kg i.v., 30 min): 20%
Percentage change in dP/dtmax ([1]; 10 μmol/kg i.v., 0-10 min (Maximum)): 101%
Percentage change in dP/dtmax ([1]; 10 μmol/kg i.v., 10 min): 39%
Percentage change in dP/dtmax ([1]; 10 μmol/kg i.v., 30 min): 29%
Percentage change in dP/dtmax ([1]; 30 μmol/kg i.v., 0-10 min (Maximum)): 141%
Percentage change in dP/dtmax ([1]; 30 μmol/kg i.v., 10 min): 78%
Percentage change in dP/dtmax ([1]; 30 μmol/kg i.v., 30 min): 69%
Percentage change in dP/dtmax (left ventricles of cats; 1 μmol/kg i.v., 3 min): 17%
Percentage change in dP/dtmax (left ventricles of cats; 1 μmol/kg i.v., 10 min): 6%
Percentage change in dP/dtmax (left ventricles of cats; 1 μmol/kg i.v., 30 min): 7%
Percentage change in dP/dtmax (left ventricles of cats; 1 μmol/kg i.v., 60 min): 23%
Percentage change in dP/dtmax (left ventricles of cats; 3 μmol/kg i.v., 3 min): 52%
Percentage change in dP/dtmax (left ventricles of cats; 3 μmol/kg i.v., 10 min): 42%
Percentage change in dP/dtmax (left ventricles of cats; 3 μmol/kg i.v., 30 min): 40%
Percentage change in dP/dtmax (left ventricles of cats; 3 μmol/kg i.v., 60 min): 43%
Percentage change in dP/dtmax (left ventricles of cats; 10 μmol/kg i.v., 3 min): 70%
Percentage change in dP/dtmax (left ventricles of cats; 10 μmol/kg i.v., 10 min): 67%
Percentage change in dP/dtmax (left ventricles of cats; 10 μmol/kg i.v., 30 min): 59%
Percentage change in dP/dtmax (left ventricles of cats; 10 μmol/kg i.v., 60 min): 55%
Emax ([2]; after 3000 nMol, read-out: Emax left-ventricular pressure): 35%
Emax ([2]; at Emax, 3000 nMol, read-out: Percentage increase in heart rate at Emax): 8%
Percentage increase in heart rate at EC20 [2]: 7%
EC20 left-ventricular pressure [2]: 1410 nmol

EC50 [4]: 4.07 µM
[EC40 pot.] left atrium / [EC50] trachea [4]: 0.6
[EC50] theophylline / [EC50] substance [4]: 33.1
Structure (SMILES): COc1ccc(-c2ccc(=S)[nH]n2)cc1OCC(C)C [compound 18]
[EC40 pot.] theophylline / [EC40 pot.] substance [3]: 166
EC40 [3]: 1.58 µM

EC50 [4]: 3.09 µM
[EC40 pot.] left atrium / [EC50] trachea [4]: 324
[EC50] theophylline / [EC50] substance [4]: 43.7
Structure (SMILES): CCCOc1ccc(-c2ccc(=S)[nH]n2)cc1OC [Serial No. 13, 6-(3-methoxy-4-n-propoxyphenyl)-3[2H]pyridazinethione]
EC40 [3]: > 1000 µM
Doubling of the latency period ([5]; 100 μmol/kg p.o., 30 min): 6 N of 10 animals
Tripling of the latency period ([5]; 100 μmol/kg p.o., 30 min, figure in parentheses): 6 N of 10 animals
protective effect compared with theophylline ([5]; result in words): greater protective effect

Structure (SMILES): Cn1c(=O)c2[nH]cnc2n(C)c1=O.NCCN [Theophylline-ethylenediamine, theophylline-ethylenediamine, reference compound]
Percentage change in dP/dtmax (left ventricles of cats; 3 μmol/kg i.v., 3 min): 8%
Percentage change in dP/dtmax (left ventricles of cats; 3 μmol/kg i.v., 10 min): 2%
Percentage change in dP/dtmax (left ventricles of cats; 3 μmol/kg i.v., 30 min): 2%
Percentage change in dP/dtmax (left ventricles of cats; 3 μmol/kg i.v., 60 min): 1%
Percentage change in dP/dtmax (left ventricles of cats; 10 μmol/kg i.v., 3 min): 62%
Percentage change in dP/dtmax (left ventricles of cats; 10 μmol/kg i.v., 10 min): 30%
Percentage change in dP/dtmax (left ventricles of cats; 10 μmol/kg i.v., 30 min): 22%
Percentage change in dP/dtmax (left ventricles of cats; 10 μmol/kg i.v., 60 min): 26%

Source: patent publication US4707481A, “Pyridazinones, their preparation and use, and bronchospasmolytic medicaments containing pyridazinones” (BYK Gulden Lomberg Chemische Fabrik GmbH, priority 1983, dated 1987)
